The record followed here is PubChem BioAssay AID180 (DTP/NCI, 2004).

Molecules are shown by their SMILES. “And” between values parts separate entries of the source, which are not always exact repeats. Equal values may be shown once.

The test concerns BDF1 mice, Adenocarcinoma 755 s.c., tumor weight T/C. Nature of the test: NCI In Vivo Anticancer Drug Screen. Data for tumor model Adenocarcinoma 755 (subcutaneous) in B6D2F1 (BDF1) mice. The settings on record: endpoint: mean tumor weight, higher = larger tumour. In a few lines: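 Tumor-bearing mice receive test compound while controls get vehicle alone. Antitumor effect is scored from survival or tumor dimensions as a T/C quotient.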

Broadly, the T/C is the result in the treated group divided by that in the control group, in per cent. As to `CCCc1c(Cl)nc(Cl)nc1Cl`, the T/C is 54 % of control (dose: 17.5 mg/kg/injection, schedule: Q01DX011 (ip), vehicle: carboxymethylcellulose (CMC)); 85 % of control (dose: 25.0 mg/kg/injection, schedule: Q01DX011 (ip), vehicle: carboxymethylcellulose (CMC)); 104 % of control (dose: 35.0 mg/kg/injection, schedule: Q01DX011 (ip), vehicle: carboxymethylcellulose (CMC)); 43 % of control (dose: 50.0 mg/kg/injection, schedule: Q01DX011 (ip), vehicle: carboxymethylcellulose (CMC)); 44 % of control (dose: 100.0 mg/kg/injection, schedule: Q01DX011 (ip), vehicle: carboxymethylcellulose (CMC)).

In the case of `CC1(C)O[C@@H]2C[C@H]3[C@@H]4CCC5=CC(=O)C=C[C@]5(C)[C@@]4(F)[C@@H](O)C[C@]3(C)[C@]2(C(=O)CO)O1`, the T/C is 38 % of control (dose: 0.7 mg/kg/injection, schedule: Q01DX011 (sc), vehicle: steriod suspending solution); 53 % of control (dose: 3.0 mg/kg/injection, schedule: Q01DX011 (sc), vehicle: steriod suspending solution); 40 % of control (dose: 6.0 mg/kg/injection, schedule: Q01DX011 (sc), vehicle: steriod suspending solution).

For `CC(=O)c1cc(C)[nH]c1C`, the T/C reads like this: (dose: 29.0 mg/kg/injection, schedule: Q01DX011 (ip), vehicle: carboxymethylcellulose (CMC)) 58 % of control; (dose: 57.5 mg/kg/injection, schedule: Q01DX011 (ip), vehicle: carboxymethylcellulose (CMC)) 99 % of control; (dose: 115.0 mg/kg/injection, schedule: Q01DX011 (ip), vehicle: carboxymethylcellulose (CMC)) 29 % of control; (dose: 115.0 mg/kg/injection, schedule: Q01DX011 (ip), vehicle: methylcellulose (MC)) 96 % of control and 77 % of control.

As to `CC(C)Cn1cnc2c(Sc3c([N+](=O)[O-])ncn3C)nc(N)nc21`, the T/C runs as follows: (dose: 0.2 mg/kg/injection, schedule: Q01DX011 (ip), vehicle: methylcellulose (MC)) 71 % of control; (dose: 0.39 mg/kg/injection, schedule: Q01DX011 (ip), vehicle: methylcellulose (MC)) 70 % of control; (dose: 0.78 mg/kg/injection, schedule: Q01DX011 (ip), vehicle: methylcellulose (MC)) 68 % of control; (dose: 3.12 mg/kg/injection, schedule: Q01DX011 (ip), vehicle: methylcellulose (MC)) 48 % of control; (dose: 6.25 mg/kg/injection, schedule: Q01DX011 (ip), vehicle: methylcellulose (MC)) 22 % of control; (dose: 12.5 mg/kg/injection, schedule: Q01DX011 (ip), vehicle: methylcellulose (MC)) 7 % of control. Moreover, the T/C (dose: 25.0 mg/kg/injection, schedule: Q01DX011 (ip), vehicle: methylcellulose (MC)) is 2 % of control.

`O=C(O)c1cc2ccccc2c2cccc([N+](=O)[O-])c12`: the T/C (dose: 1.75 mg/kg/injection, schedule: Q01DX011 (ip), vehicle: carboxymethylcellulose (CMC)) is 63 % of control; the T/C (dose: 3.5 mg/kg/injection, schedule: Q01DX011 (ip), vehicle: carboxymethylcellulose (CMC)) was 89 % of control; the T/C (dose: 7.0 mg/kg/injection, schedule: Q01DX011 (ip), vehicle: carboxymethylcellulose (CMC)) is 59 % of control.

As to `C[C@]12CC[C@H](O)C[C@@H]1CC[C@@H]1[C@@H]2C(=O)C[C@]2(C)C3=CC(=O)O[C@H]3C[C@@H]12`, the T/C reads like this: (dose: 5.0 mg/kg/injection, schedule: Q01DX011 (sc), vehicle: steriod suspending solution) 73 % of control; (dose: 10.0 mg/kg/injection, schedule: Q01DX011 (sc), vehicle: steriod suspending solution) 69 % of control; (dose: 20.0 mg/kg/injection, schedule: Q01DX011 (sc), vehicle: steriod suspending solution) 74 % of control; (dose: 40.0 mg/kg/injection, schedule: Q01DX011 (sc), vehicle: steriod suspending solution) 77 % of control.

Turning to `C=C(Cl)CN(CC)CCO`, the T/C (dose: 50.0 mg/kg/injection, schedule: Q01DX011 (ip), vehicle: other) was 77 % of control; the T/C (dose: 100.0 mg/kg/injection, schedule: Q01DX011 (ip), vehicle: other) is 69 % of control; the T/C (dose: 200.0 mg/kg/injection, schedule: Q01DX011 (ip), vehicle: other) is 76 % of control.

In the case of `CC(C)(CBr)C(=O)N1CCN(C(=O)C(C)(C)CBr)CC1`, the T/C was 80 % of control (dose: 7.0 mg/kg/injection, schedule: Q01DX011 (ip), vehicle: methylcellulose (MC)) and 56 % of control (dose: 14.0 mg/kg/injection, schedule: Q01DX011 (ip), vehicle: methylcellulose (MC)).

As for `Nc1nc(N)c2cnnn2n1`, the T/C was 83 % of control (dose: 25.0 mg/kg/injection, schedule: Q01DX011 (ip), vehicle: saline) and 116 % of control (dose: 75.0 mg/kg/injection, schedule: Q01DX011 (ip), vehicle: saline).

Turning to `CCCNS(=O)(=O)c1ncnc2nc[nH]c12`, the T/C runs as follows: (dose: 9.0 mg/kg/injection, schedule: Q01DX011 (ip), vehicle: carboxymethylcellulose (CMC)) 52 % of control; (dose: 18.0 mg/kg/injection, schedule: Q01DX011 (ip), vehicle: carboxymethylcellulose (CMC)) 17 % of control; (dose: 37.0 mg/kg/injection, schedule: Q01DX011 (ip), vehicle: carboxymethylcellulose (CMC)) 3 % of control.

In the case of `CC(=O)N(C)C`, the T/C runs as follows: (dose: 125.0 mg/kg/injection, schedule: Q#A X022 (ip), vehicle: saline) 84 % of control; (dose: 250.0 mg/kg/injection, schedule: Q01DX011 (ip), vehicle: saline) 93 % of control and 105 % of control; (dose: 250.0 mg/kg/injection, schedule: Q01DX011 (sc), vehicle: saline) 100 % of control; (dose: 250.0 mg/kg/injection, schedule: Q03DX004 (ip), vehicle: saline) 64 % of control; (dose: 500.0 mg/kg/injection, schedule: Q01DX006 (iv), vehicle: saline) 99 % of control; (dose: 500.0 mg/kg/injection, schedule: Q01DX011 (im), vehicle: saline) 155 % of control. Further, the T/C by setting is: (dose: 500.0 mg/kg/injection, schedule: Q01DX011 (ip), vehicle: saline) 98 % of control and 77 % of control; (dose: 500.0 mg/kg/injection, schedule: Q03DX004 (ip), vehicle: saline) 79 % of control; (dose: 500.0 mg/kg/injection, schedule: Q#A X022 (ip), vehicle: saline) 57 % of control; (dose: 750.0 mg/kg/injection, schedule: Q01DX011 (ip), vehicle: other) 28 % of control; (dose: 750.0 mg/kg/injection, schedule: Q03DX004 (ip), vehicle: saline) 84 % of control; (dose: 1000.0 mg/kg/injection, schedule: Q01DX001 (ip), vehicle: saline) 72 % of control and 84 % of control. For the same compound, the T/C was 80 % of control (dose: 1000.0 mg/kg/injection, schedule: Q01DX006 (iv), vehicle: saline); 78 % of control (dose: 1000.0 mg/kg/injection, schedule: Q01DX011 (im), vehicle: saline); 16 % of control (dose: 1000.0 mg/kg/injection, schedule: Q01DX011 (ip), vehicle: other); 66 % of control and 71 % of control (dose: 1000.0 mg/kg/injection, schedule: Q01DX011 (sc), vehicle: saline); 91 % of control (dose: 1000.0 mg/kg/injection, schedule: Q03DX004 (ip), vehicle: saline); 29 % of control (dose: 1000.0 mg/kg/injection, schedule: Q#A X022 (ip), vehicle: saline). For the same compound, the T/C is, setting by setting: (dose: 1250.0 mg/kg/injection, schedule: Q01DX011 (ip), vehicle: other) 5 % of control; (dose: 1500.0 mg/kg/injection, schedule: Q03DX004 (ip), vehicle: saline) 81 % of control; (dose: 2000.0 mg/kg/injection, schedule: Q01DX006 (iv), vehicle: saline) 67 % of control; (dose: 2000.0 mg/kg/injection, schedule: Q01DX011 (im), vehicle: saline) 22 % of control; (dose: 2000.0 mg/kg/injection, schedule: Q01DX011 (ip), vehicle: saline) 16 % of control and 17 % of control; (dose: 2000.0 mg/kg/injection, schedule: Q01DX011 (oral), vehicle: saline) 48 % of control and 57 % of control. In addition, the T/C is 64 % of control (dose: 2000.0 mg/kg/injection, schedule: Q01DX011 (sc), vehicle: saline); 69 % of control (dose: 2000.0 mg/kg/injection, schedule: Q03DX004 (ip), vehicle: saline); 36 % of control (dose: 3000.0 mg/kg/injection, schedule: Q03DX004 (ip), vehicle: saline); 11 % of control (dose: 4000.0 mg/kg/injection, schedule: Q01DX011 (oral), vehicle: saline).

In the case of `CN1CC(=O)N=C1N`, the T/C is, setting by setting: (dose: 250.0 mg/kg/injection, schedule: Q#A X022 (ip), vehicle: water) 47 % of control; (dose: 375.0 mg/kg/injection, schedule: Q#A X022 (ip), vehicle: water) 88 % of control; (dose: 500.0 mg/kg/injection, schedule: Q#A X022 (ip), vehicle: water) 36 % of control; (dose: 750.0 mg/kg/injection, schedule: Q#A X022 (ip), vehicle: water) 67 % of control; (dose: 1250.0 mg/kg/injection, schedule: Q#A X022 (ip), vehicle: water) 72 % of control; (dose: 1500.0 mg/kg/injection, schedule: Q#A X022 (ip), vehicle: water) 68 % of control.
